From patent US10655126B2, “Methods and compositions to treat drug-induced diseases and conditions” (University of Vermont and State Agricultural College, priority 2015, dated 2020)

Assays:
wild-type hepatocytes = test: Protection of wild-type hepatocytes from acetaminophen toxic injury by siRNA for MCJ; format: cell-based
wild-type mice = test: Acetaminophen (APAP) mouse model of drug-induced liver injury: liver histology and serum ALT; format: in vivo
Experimental: Alanine aminotransferase (ALT) aspartate aminotransferase (AST) and bilirubin were determined in serum samples using the Selectra Junior SpinLab 100 analyzer (Vital Scientific) and the SpinReact reagents according to manufacturer's protocols.
Paraffin-embedded liver samples were sectioned, dewaxed, and hydrated. Immunohistochemistry (IHC) was performed using an anti-MCJ antibody and nuclei were counter-stained with hematoxylin. Quantification of staining area of each sample was analyzed using the Frida software and represented as the % of the stained area relative to the total area (power field). Ten fields per sample were pictured and analyzed. For liver histology, liver sections from paraffin-embedded tissue were stained with hematoxylin and eoxin (H&E staining). Frida software was used for quantification.
(§1) siMCJ oligos (double strand RNA oligos, see for example, SEQ ID NO: 22) containing the designed sequence were synthesized for in vivo studies (Ambion invivo siRNA). As a delivery system Invivofectamine 3.0 (Life Technology) was used because it is claimed to obtain high efficiency of in vivo delivery of siRNA into hepatocytes. Following the recommendation of the manufacturer, 1.7 mg/Kg was used in combination with invivofectamine 3.0. Preparation of siRNA with the Invivofectamine was performed as recommended by the manufacturer. Mice were administered with a single i.v. dose of siMCJ/invivofectamine in 150 μl.

MCJ [1] = test: MCJ expression in liver in vivo by Western blot; parameters: species or system mouse
Experimental: Analysis for MCJ expression in liver by Western blot analysis was performed as previously described (REF) using a specific anti-MCJ antibody. Expression of GAPDH was used as a control. Band intensities were quantified using the ImageJ software and normalized to the control (GAPDH).
as §1

CoxIV = CoxIV level in human MCF7 cells, Western blot (control protein); format: cell-based; conditions: MCF7 cells transfected with h-siMCJ 5 nM, harvested after 30 h; FIG. 10
Experimental: (§2) A human siMCJ has been tested in a human MCF7 cell line in vitro. […] Transfection methods included transecting human MCF7 cells transfected with h-siMCJ (5 nM) and after 30 h cells were harvested and MCJ expression was examined by Western blot analysis using an anti-human MCJ antibody. CoxIV (mitochondrial protein) and GAPDH were also examined as controls.

MCJ [2] = test: MCJ knockdown in human MCF7 cells, Western blot; format: cell-based; conditions: MCF7 cells transfected with h-siMCJ 5 nM, harvested after 30 h; FIG. 10
Experimental: as §2

[3] = cited from earlier work

Compound: siMCJ: double strand RNA oligos (see for example SEQ ID NO: 22, mouse siRNA sequence gcgagaggctagtcttatt), given i.v. with Invivofectamine 3.0 (GCGAGAGGCTAGTCTTATT; Invivofectamine 3.0 formulation, further chemistry not given here; listed as Mus musculus)
- protection from toxic injury caused by acetaminophen (wild-type hepatocytes): protected wild-type hepatocytes from the development of toxic injury
- areas of tissue damage in liver sections (H&E histology) (wild-type mice; siMCJ i.v. 20 h before acetaminophen 360 mg/Kg i.p., harvested 24 h after acetaminophen, FIG. 8B): almost not detected
- quantification of the damage area in the livers (wild-type mice; siMCJ i.v. 20 h before acetaminophen, n=5, p<0.05, FIG. 8C): protective effect
- levels of ALT in serum (wild-type mice; siMCJ i.v. 24 h after acetaminophen 360 mg/Kg i.p., harvested 48 h after acetaminophen, p<0.01 vs control mice, FIG. 9B): drastically lower
- levels of endogenous MCJ in the liver (MCJ [1]; 24 h after single i.v. dose of siMCJ 1.7 mg/Kg with invivofectamine, wild-type mice, FIG. 7): almost undetectable
- restoration of MCJ levels in liver (MCJ [1]; after 9 days of administration, single i.v. dose of siMCJ, FIG. 7): not a full restoration of MCJ levels
- levels of MCJ in the liver of APAP-mice (MCJ [1]; siMCJ i.v. 20 h before acetaminophen 360 mg/Kg i.p., harvested 24 h after acetaminophen, relative to APAP-mice without siMCJ, FIG. 8A): markedly reduced
- levels of MCJ in the liver (MCJ [1]; siMCJ i.v. 24 h after acetaminophen 360 mg/Kg i.p., harvested 48 h after acetaminophen, FIG. 9A): almost undetectable
- time for which levels of MCJ in liver remained very low (MCJ [1]; single i.v. dose of siMCJ 1.7 mg/Kg with invivofectamine, FIG. 7): at least 7 days

Compound: h-siMCJ: human siRNA sequence gaagatttcaactectagat (as printed), double stranded RNA oligo (GAAGATTTCAACTCCTAGCTT; listed as DNA, chemistry not given here; listed as Homo sapiens)
- levels of CoxIV (another mitochondrial protein) (CoxIV): not affecting the levels of CoxIV
- MCJ protein expression (MCJ [2]): sufficient to knockdown MCJ protein expression

Compound: CC(=O)N[C@@H](CS)C(=O)O [NAC, N-acetylcysteine]
- hepatoprotective effect when given after 8 h ([3]; more than 8 h after uptake of acetaminophen): minimal to known
- time after uptake of acetaminophen within which administration has a hepatoprotective effect ([3]; patients with acute hepatic failure due to overdose of acetaminophen): ≤ 8 h
